For this experiment, the system named is equol production in the intestinal tract. Nature of the experiment: Ability of DFA to increase equol production in the intestinal tract of rats (plasma equol by HPLC-UV). The class given is in vivo, Wistar-ST rats. The following applies: 20 days. From the text:
The ability of DFA to increase equol production in the intestinal tract was examined.
Twenty-seven male Wistar-ST rats (six weeks old) were raised with a solid feed for three days, after which they were divided into three groups by weight so that each group consisted of nine rats. Each group was given a base feed containing 0.25% of a food product containing 40% isoflavone (basal diet group), a feed consisting of the base feed whose sucrose was substituted by 3% with DFAIII (DFAIII group), or a feed consisting of the base feed whose sucrose was substituted by 3% with fructo-oligosaccharide (FOS group), and raised for twenty days. On day 20, blood was taken from each rat through the caudal vein and the equol level in blood plasma was measured using the HPLC-UV method.
In the table, a and b indicate that values denoted by different symbols have a significant difference between them.

Regarding `OC[C@H]1O[C@@]2(CO[C@]3(CO)O[C@H](CO)[C@@H](O)[C@@H]3O2)[C@@H](O)[C@@H]1O` [DFAIII, difructose anhydride], for the setting “male Wistar-ST rats, n=9/group, base feed with 0.25% of food product containing 40% isoflavone, sucrose substituted by 3% with test substance, caudal vein blood on day 20, HPLC-UV”, the Equol (equol level in blood plasma) was found to be 17.7 ± 1.81 µmol.

As to `OC[C@H]1O[C@@]2(CO[C@]3(CO)O[C@H](CO)[C@@H](O)[C@@H]3O2)[C@@H](O)[C@@H]1O` [DFA, difructose anhydride], the “Effect of ingestion on equol level in blood plasma (in words)” value (rats, 3% in isoflavone-containing feed) is “caused the equol level in blood plasma to rise”.

For the origin of these results see patent publication US8530446B2, “Oral composition containing difructose anhydride” (Fancl Corporation, priority 2004, dated 2013).
